Structures can show the parent of a compound that is named as a salt.
Legend:
ITK = biological target: T1, ITK (Homo sapiens, UniProt Q08881); assay: ITK degradation HiBiT assay; assay type: cell-based; design: expressed in transfected cells; host or cells: Molt4 (ATCC CRL-1552), monoclonal clone 1C10, engineered to carry the HiBiT tag; conditions: 4 hrs; for DC50: C-terminal HiBiT-tagged Molt4 cells; for Dmax: MOLT-4, C-terminal HiBiT-tagged Molt4 cells
T1 sequence (Q08881 1-620): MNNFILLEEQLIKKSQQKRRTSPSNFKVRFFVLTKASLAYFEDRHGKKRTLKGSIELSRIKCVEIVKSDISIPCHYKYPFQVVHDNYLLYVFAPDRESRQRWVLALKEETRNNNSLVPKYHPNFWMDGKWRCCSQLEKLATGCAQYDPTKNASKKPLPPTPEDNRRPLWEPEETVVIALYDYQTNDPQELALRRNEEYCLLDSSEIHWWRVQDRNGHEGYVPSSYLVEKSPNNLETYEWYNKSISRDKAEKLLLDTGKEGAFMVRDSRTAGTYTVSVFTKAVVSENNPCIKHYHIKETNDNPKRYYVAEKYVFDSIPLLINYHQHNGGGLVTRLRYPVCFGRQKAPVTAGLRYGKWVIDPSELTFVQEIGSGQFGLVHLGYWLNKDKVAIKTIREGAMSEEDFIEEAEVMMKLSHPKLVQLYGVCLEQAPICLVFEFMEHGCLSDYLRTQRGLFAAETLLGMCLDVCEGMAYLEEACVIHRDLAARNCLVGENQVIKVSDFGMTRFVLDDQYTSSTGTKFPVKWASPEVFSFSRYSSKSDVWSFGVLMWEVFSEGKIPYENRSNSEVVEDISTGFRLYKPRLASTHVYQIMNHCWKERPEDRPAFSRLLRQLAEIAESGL
In short: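 C-terminal HiBiT-tagged Molt4 cells (clone 1C10) treated 4 h at 32° C with an 11-point, 5-fold compound dilution series (0.5% DMSO). HiBiT lytic detection with LgBiT then luminescence read; % ITK remaining versus concentration fit by four-parameter variable-slope model to give DC50 and Dmax.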

[1] = Mouse PK analysis (blood/plasma concentration after oral administration); assay type: in vivo; conditions: mice; for AUC(0-t) / Cmax / Tmax / concentration at 1 h / concentration at 2 h / concentration at 6 h: mouse, plasma; for concentration at 1 h / concentration at 2 h / concentration at 6 h: 90 mg/kg; for concentration at 1 h: read-out: Cal. Conc. Total (μM) 1 h; for concentration at 2 h: read-out: Cal. Conc. Total (μM) 2 h; for concentration at 6 h: read-out: Cal. Conc. Total (μM) 6 h
In short: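 Mice were dosed by oral gavage at 90 mg/kg with blood sampled at 1, 2 and 6 h; a second study used oral dosing with plasma taken at 6 or 24 h. Plasma levels were measured by LC/MS/MS (acetonitrile precipitation, internal-standard curve, positive ESI MRM), and Cmax, Tmax and AUClast were derived by noncompartmental analysis.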

SMILES	DC50 (ITK) [nM]	Dmax (ITK) [%]	AUC(0-t) ([1]; oral) [µM·h]	Cmax ([1]; oral) [nM]	Tmax ([1]; oral) [h]	concentration at 1 h ([1]; oral) [µM]	concentration at 2 h ([1]; oral, 2 h) [µM]	concentration at 6 h ([1]; oral, 6 h) [µM]	Cal. Conc. Total (μM) 2 h ([1]; 2 h)	Cal. Conc. Total (μM) 6 h ([1]; 6 h)	detected in plasma through (FIG. 4B) ([1]; oral, plasma LC/MS/MS) [h]
Cn1c(=O)n([C@H]2CCC(=O)NC2=O)c2cccc(N3CCC(CN4CCN(C(=O)c5ccc6cc(-c7n[nH]c8c7CCC(C)(C)C8)[nH]c6c5)CC4)CC3)c21 [Compound 46, (S)-3-(4-(4-((4-(2-(6,6-dimethyl-4,5,6,7-tetrahydro-1H-indazol-3-yl)-1H-indole-6-carbonyl)piperazin-1-yl)methyl)piperidin-1-yl)-3-methyl-2-oxo-2,3-dihydro-1H-benzo[d]imidazol-1-yl)piperidine-2,6-dione]	14	79	9.38	2130	4						
CN(C(=O)CCN1CCN(c2ccc3c(c2)C(=O)N(C2CCC(=O)NC2=O)C3=O)CC1)c1ccc2cc(-c3n[nH]c4c3CCC(C)(C)C4)[nH]c2c1 (centres unmarked) [Compound 2, N-(2-(6,6-dimethyl-4,5,6,7-tetrahydro-1H-indazol-3-yl)-1H-indol-6-yl)-3-(4-(2-(2,6-dioxopiperidin-3-yl)-1,3-dioxoisoindolin-5-yl)piperazin-1-yl)-N-methylpropanamide]	4.4	90				0.041	0.039	0.059			
C[C@@]12Cc3[nH]nc(C(=O)Nc4cnn(CC5CN(C[C@H]6CCN(c7ccc8c(c7)C(=O)N(C7CCC(=O)NC7=O)C8=O)C6)C5)c4)c3C[C@@H]1C2(F)F (stereo partly drawn) [Compound 44, (4aS,5aR)-N-(1-((1-(((3R)-1-(2-(2,6-dioxopiperidin-3-yl)-1,3-dioxoisoindolin-5-yl)pyrrolidin-3-yl)methyl)azetidin-3-yl)methyl)-1H-pyrazol-4-yl)-5,5-difluoro-5a-methyl-1,4,4a,5,5a,6-hexahydrocyclopropa[f]indazole-3-carboxamide]	2.4	88		27	2						
C[C@@H](C(=O)N(C)c1ccc2cc(-c3n[nH]c4c3C[C@@H]3C(F)(F)[C@]3(C)C4)[nH]c2c1)N1CCN(CC2CCN(c3ccc(C(=O)NC4CCC(=O)NC4=O)nc3)CC2)CC1 (stereo partly drawn) [Compound 66, 5-(4-((4-((S)-1-((2-((4aS,5aR)-5,5-difluoro-5a-methyl-1,4,4a,5,5a,6-hexahydrocyclopropa[f]indazol-3-yl)-1H-indol-6-yl)(methyl)amino)-1-oxopropan-2-yl)piperazin-1-yl)methyl)piperidin-1-yl)-N-(2,6-dioxopiperidin-3-yl)picolinamide]	0.55	71	1.74	526	4						
C[C@@H](C(=O)N(C)c1ccc2cc(-c3n[nH]c4c3CCC(C)(C)C4)[nH]c2c1)N1CCN(C(=O)C2CN(C3CCN(c4ccc5c(c4)C(=O)N(C4CCC(=O)NC4=O)C5=O)CC3)C2)CC1 (stereo partly drawn) [Compound 34, (2S)—N-(2-(6,6-dimethyl-4,5,6,7-tetrahydro-1H-indazol-3-yl)-1H-indol-6-yl)-2-(4-(1-(1-(2-(2,6-dioxopiperidin-3-yl)-1,3-dioxoisoindolin-5-yl)piperidin-4-yl)azetidine-3-carbonyl)piperazin-1-yl)-N-methylpropanamide]	1.8	89							BQL	BQL	
C[C@@H](C(=O)N(C)c1ccc2cc(-c3n[nH]c4c3CCC(C)(C)C4)[nH]c2c1)N1CCN(C[C@@H]2CCN(c3ccc4c(c3)n(C)c(=O)n4C3CCC(=O)NC3=O)C2)CC1 (stereo partly drawn) [Compound 4, (2S)—N-(2-(6,6-dimethyl-4,5,6,7-tetrahydro-1H-indazol-3-yl)-1H-indol-6-yl)-2-(4-(((3S)-1-(1-(2,6-dioxopiperidin-3-yl)-3-methyl-2-oxo-2,3-dihydro-1H-benzo[d]imidazol-5-yl)pyrrolidin-3-yl)methyl)piperazin-1-yl)-N-methylpropanamide]	2.3	64	0.54	127	2						
C[C@@H](C(=O)N(C)c1ccc2cc(-c3n[nH]c4c3CCC(C)(C)C4)[nH]c2c1)N1CCN(CC2CCN(c3ccc(C(=O)NC4CCC(=O)NC4=O)nc3)CC2)CC1 (stereo partly drawn) [Compound 7, 5-(4-((4-((S)-1-((2-(6,6-dimethyl-4,5,6,7-tetrahydro-1H-indazol-3-yl)-1H-indol-6-yl)(methyl)amino)-1-oxopropan-2-yl)piperazin-1-yl)methyl)piperidin-1-yl)-N-(2,6-dioxopiperidin-3-yl)picolinamide]						0.2	0.29	0.45			

Now from value to compound:

DC50 (ITK) [nM]	Dmax (ITK) [%]	AUC(0-t) ([1]; oral) [µM·h]	Cmax ([1]; oral) [nM]	Tmax ([1]; oral) [h]	concentration at 1 h ([1]; oral) [µM]	concentration at 2 h ([1]; oral, 2 h) [µM]	concentration at 6 h ([1]; oral, 6 h) [µM]	Cal. Conc. Total (μM) 2 h ([1]; 2 h)	Cal. Conc. Total (μM) 6 h ([1]; 6 h)	detected in plasma through (FIG. 4B) ([1]; oral, plasma LC/MS/MS) [h]	SMILES
0.35	80	1.38	405	6							C[C@@H](C(=O)N(C)c1ccc2cc(-c3n[nH]c4c3C[C@@H]3C(F)(F)[C@]3(C)C4)[nH]c2c1)N1CCN(CC2CCN(c3cccc4c3n(C)c(=O)n4C3CCC(=O)NC3=O)CC2)CC1 (stereo partly drawn) [Compound 65, (2S)—N-(2-((4aS,5aR)-5,5-difluoro-5a-methyl-1,4,4a,5,5a,6-hexahydrocyclopropa[f]indazol-3-yl)-1H-indol-6-yl)-2-(4-((1-(1-(2,6-dioxopiperidin-3-yl)-3-methyl-2-oxo-2,3-dihydro-1H-benzo[d]imidazol-4-yl)piperidin-4-yl)methyl)piperazin-1-yl)-N-methylpropanamide]
0.12	86	0.02	9	4							CN(C(=O)CN1CCC2(CC1)CCN(c1ccc3c(c1)C(=O)N(C1CCC(=O)NC1=O)C3=O)C2)c1ccc2cc(-c3n[nH]c4c3C[C@@H]3C(F)(F)[C@]3(C)C4)[nH]c2c1 (stereo partly drawn) [Compound 72, N-(2-((4aS,5aR)-5,5-difluoro-5a-methyl-1,4,4a,5,5a,6-hexahydrocyclopropa[f]indazol-3-yl)-1H-indol-6-yl)-2-(2-(2-(2,6-dioxopiperidin-3-yl)-1,3-dioxoisoindolin-5-yl)-2,8-diazaspiro[4.5]decan-8-yl)-N-methylacetamide]
0.35	93	3.14	743	4							C[C@@]12Cc3[nH]nc(-c4cc5ccc(N6CCC7(CCN(Cc8ccc9c(c8)C(=O)N(C8CCC(=O)NC8=O)C9=O)CC7)C6=O)cc5[nH]4)c3C[C@@H]1C2(F)F (stereo partly drawn) [Compound 15, 5-((2-(2-((4aS,5aR)-5,5-difluoro-5a-methyl-1,4,4a,5,5a,6-hexahydrocyclopropa[f]indazol-3-yl)-1H-indol-6-yl)-1-oxo-2,8-diazaspiro[4.5]decan-8-yl)methyl)-2-(2,6-dioxopiperidin-3-yl)isoindoline-1,3-dione hydrochloride]
0.29	86	0.198	80.3	1							C[C@@H](C(=O)N(C)c1ccc2cc(-c3n[nH]c4c3CCC(C)(C)C4)[nH]c2c1)N1CCN(C[C@H]2CCN(c3ccc4c(c3)CN(C3CCC(=O)NC3=O)C4=O)C2)CC1 (stereo partly drawn) [Compound 12, (2S)—N-(2-(6,6-dimethyl-4,5,6,7-tetrahydro-1H-indazol-3-yl)-1H-indol-6-yl)-2-(4-(((3R)-1-(2-(2,6-dioxopiperidin-3-yl)-1-oxoisoindolin-5-yl)pyrrolidin-3-yl)methyl)piperazin-1-yl)-N-methylpropanamide]
< 0.001										24	C[C@@H](C(=O)N(C)c1ccc2cc(-c3n[nH]c4c3C[C@@H]3C(F)(F)[C@]3(C)C4)[nH]c2c1)N1CCN(CC2CCN(c3ccc(C4CCC(=O)NC4=O)cn3)CC2)CC1 (stereo partly drawn) [Compound 17, (2S)—N-(2-((4aS,5aR)-5,5-difluoro-5a-methyl-1,4,4a,5,5a,6-hexahydrocyclopropa[f]indazol-3-yl)-1H-indol-6-yl)-2-(4-((1-(5-(2,6-dioxopiperidin-3-yl)pyridin-2-yl)piperidin-4-yl)methyl)piperazin-1-yl)-N-methylpropanamide]
